Values after ≈ are worked out from the molar mass of the structure shown. Positions of bridges follow the written chain, without caps; N, C: chain ends. Non-standard residues stand in square brackets, D forms with d. Residues, ends and D or L forms follow the SMILES beside them. S5 = C=CCCC[C@](C)(N)C(=O)O

These results are taken from paper PMC10845205, “Discovery of novel antibacterial agent for the infected wound treatment: all-hydrocarbon stapling optimization of LL-37” (Theranostics, 2024).

In one data set the test system is NIH-3T3 cell. Particulars: 24 h. The method, then: For development of the stapled KR-12 derivatives to treat bacterial infections in vivo, their cytotoxicity was examined via the CCK-8 assay, which could provide a quantitative assessment of cell viability based on the dehydrogenase activity. The mouse embryonic fibroblast NIH-3T3 cell was selected and incubated with various concentrations of KR-12 and its stapled derivatives.
Mouse embryonic fibroblast cells NIH-3T3 and mouse monocyte macrophage leukemia cells RAW264.7 were obtained from Shanghai Institute of Biochemistry and Cell Biology, Chinese Academy of Sciences. These two cells were maintained in DMEM and RPMI-1640, respectively. Both media were supplemented with 10% FBS and 1% 100 U/mL penicillin-streptomycin solution. Cells were maintained at 37 °C in a 5% CO2 and humidified incubator. Replace the culture medium every day until the cell grows to confluence. Cells were then treated with 0.25% trypsin–EDTA and split using fresh medium for either passage or analysis.
CCK-8 cell counting kit was utilized to examine the cytotoxicity of the linear and stapled peptides. NIH-3T3 cell was planked at a density of 1.5×10^4 cell/well in a 96 - well plate and incubated it for 24 hours at 37 °C. Cells were then treated with different concentrations of peptides in fresh DMEM and incubated for 24 hours before the addition of 10 μL CCK -8 and incubation for a further 1 hour. Measure the absorbance at 450nm using a microplate reader (BioTek, USA) and calculate the percentage of cell viability as: cell viability (%) = (Abspeptide-Absblank)/(Abscontrol-Absblank)×100%, where Abscontrol is the absorbance of cells treated with PBS and Abs blank is the absorbance of the cell-free medium. The data was fitted using the nonlinear regression within

A further data set has as its system S. epidermidis. The settings on record: 24 h. Here is the method:
(§1) According to the protocol of Clinical & Laboratory Standards Institute, the minimum inhibitory concentration (MIC) of the linear and stapled peptides against a panel of gram-positive and gram-negative bacteria was determined by the broth microdilution method. […]
(§2) Bacterial strains and culture
(§3) Bacterial type stains ATCC 25923 S. aureus, ATCC 12228 S. epidermidis, ATCC […]
(§4) aeruginosa and ATCC 13883 K. pneumoniae were obtained from Shanghai Bioresource Collection Center. The bacterial culture medium was purchased from Oxoid and autoclaved according to the instructions from manufacturer. The isolated strains were cultured in Mueller Hinton II broth and continuously shaken at 140 rpm for 18 hours to the middle of the exponential growth phase at 37 °C with an OD value of 0.4-0.5.
(§5) Bacterial suspensions with an OD value of 0.1, approximately […], were then diluted for further assays.
(§6) The minimal inhibition concentration (MIC) of the linear and stapled peptides was determined using the microbroth dilution method from the Clinical and Laboratory Standards Institute (CLSI)[2, 3]. Bacterial suspensions of 10 6 CFU/mL were prepared in MH-II broth and peptide solutions at varying concentrations were prepared in phosphate buffer saline (PBS). Then 50 μL peptide solution and 50 μL bacterial suspension were mixed in a 96 -well plate. Plates were incubated for 24 hours at 37 °C.
(§7) 10 μL AlamarBlue cell viability reagent (ThermoFisher Scientific, UK) was added to each well, then the plate was re -incubated for a further 2 hours at 37 °C. The MIC was recorded as the minimum concentration of peptides required to completely in hibit bacteria growth. For serum stability assessment, the peptide solutions were pre - incubated with 50% human serum for 4 h before the MIC determination. Experiments were performed in 3 independent measurements. […]

A further data set concerns E. coli. Particulars: 24 h. The method, then:
as §1, §2, §3, §4, §5, §6, §7

The next data set has as its system K. pneumoniae. Particulars: 24 h. Here is the method: as §1, §2, §3, §4, §5, §6, §7
For the next data set, the system named is S. aureus. The settings on record: 24 h. Here is the method: as §1, §2, §3, §4, §5, §6, §7
A further data set has as its system A. baumannii. The settings on record: 24 h. The method, then:
as §1, §2, §3, §4, §5, §6, §7

The subject of a further data set is P. aeruginosa. Particulars: 24 h. The method, then:
as §1, §2, §3, §4, §5, §6, §7

A further data set has as its system E. faecalis. Particulars: 24 h. Here is the method:
as §1, §2, §3, §4, §5, §6, §7

A short description of a further data set: Serum stability assay. Format: in vitro ADME, human. The settings on record: human serum, 2 mg/mL peptide in pH 7.4 PBS mixed with serum 1:4, 37 °C, up to 48 h, RP-HPLC UV 220 nm, 3 independent measurements. From the text: Maintaining high stability and presenting high compatibility in the complex physiological environment are important criterions for the clinical translation of AMPs. […] The derivatives were mixed with human serum in pH 7.4 PBS, simulating the degradation process of peptides by proteases in vivo. The percentages of intact derivatives were monitored and determined with time according to the PR-HPLC. […]
Serum stability of the linear and stapled peptides was examined by RP -HPLC as previously described. 2 mg/mL peptide solution was prepared in pH 7.4 PBS and incubated with human serum (Gemini, USA) to the final volume ratio of 1:4 at 37 °C.
At various time intervals, 50 μL mixture was added to 50 μL ethanol to terminate the enzymatic hydrolysis. After centrifugation at 10,000 rpm for 10 minutes under 4 °C, […]
the supernatant was collected and analyzed by RP-HPLC, with a UV detector monitored at 220 nm. Record the peak area of the intact peptide and calculate the percentage of remaining peptide based on the integrated area as, Peptide remaining (%) = peak area of remaining peptide/peak area of intact peptide×100%. […]

In the case of `CC[C@H](C)[C@H](NC(=O)[C@H](CCCNC(=N)N)NC(=O)[C@H](CCCCN)NC(C)=O)C(=O)N[C@H](C(=O)N[C@@H](CCC(N)=O)C(=O)N[C@@H](CCCNC(=N)N)C(=O)N[C@@]1(C)CCCC=CCCC[C@@](C)(C(=O)N[C@@H](CCCNC(=N)N)C(N)=O)NC(=O)[C@H](Cc2ccccc2)NC(=O)[C@H](CC(=O)O)NC(=O)[C@H](CCCCN)NC1=O)C(C)C` [KR-12 (I7, L11)] (Ac-KRIVQR[S5]KDF[S5]R-NH2; staple 7-11), in the data set on NIH-3T3 cell, the “IC50 against NIH-3T3 cell” value was 212.8 µg/mL (≈ 130 µM). Moreover, the “MIC S. epidermidis” value against S. epidermidis was 128 µg/mL (≈ 78.2 µM). In addition, the “MIC E. coli” value in the data set on E. coli worked out at 32 µg/mL (≈ 19.5 µM). Also, in the data set with K. pneumoniae, the “MIC K. pneumoniae” value is 256 µg/mL (≈ 156 µM). The “MIC S. aureus” value against S. aureus worked out at 32 µg/mL (≈ 19.5 µM). Also, the “MIC A. baumannii” value with A. baumannii worked out at 64 µg/mL (≈ 39.1 µM). The “MIC P. aeruginosa” value in the data set on P. aeruginosa was 256 µg/mL (≈ 156 µM). Further, the “MIC E. faecalis” value against E. faecalis is 32 µg/mL (≈ 19.5 µM). The “TD50 (time at which 50% of the peptide is degraded in the presence of serum)” value in “Serum stability assay” was determined as 11.44 h.
